In patent publication US20070249720A1, “Thiourea Derivative-Containing Pharmaceutical Composition Having Improved Solubility and Bioavailability” (priority 2003, published 2007):
Values after ≈ are worked out from the molar mass of the structure shown.

Assays:
[1] = Solubility of Compound 1 in aqueous 2-hydroxypropyl-β-cyclodextrin solutions (HPLC); assay type: physicochemical; details: aqueous 2-hydroxypropyl-β-cyclodextrin solution, thermodynamic from solid, stirred 72 hours
Experimental: 0.4 g of 1-(4-t-butylbenzyl)-3-(3-fluoro-4-methanesulfonylaminobenzyl)thiourea (Compound 1) was added to each 10 ml of 0, 1.5, 3.5, 7.0, 14.0 and 28.0 w/v % aqueous solutions of 2-hydroxypropyl-β-cyclodextrin. The resulting mixture was stirred for 72 hours, filtered through a 0.2 micrometer filter paper. The concentration of Compound 1 in the filtrate was determined by high performance liquid chromatography (HPLC) and the solubility of Compound 1 depending on the concentration of 2-hydroxypropyl-β-cyclodextrin is presented in Table 1.

[2] = Solubility of Compound 1 in 2-hydroxypropyl-β-cyclodextrin solution in glycine buffer (pH 10.5) (HPLC); assay type: physicochemical; details: thermodynamic from solid, stirred 72 hours
Experimental: 0.4 g of 1-(4-t-butylbenzyl)-3-(3-fluoro-4-methanesulfonylaminobenzyl)thiourea (Compound 1) was added to each 10 ml of 0, 1.5, 3.5, 7.0, 14.0 and 28.0 w/v % 2-hydroxypropyl-β-cyclodextrin solution in glycine buffer (pH 10.5). The resulting mixture was stirred for 72 hours, filtered through a 0.2 micrometer filter paper.
The concentration of Compound 1 in the filtrate was determined by high performance liquid chromatography (HPLC) and the solubility of Compound 1 depending on the concentration of 2-hylroxypropyl-β-cyclodextrin is presented in Table 2.

[3] = Solubility of Compound 1 in 95% ethanol solution containing 2-hydroxypropyl-β-cyclodextrin (HPLC); assay type: physicochemical; details: organic solvent or mixture, thermodynamic from solid, stirred 72 hours
Experimental: 5 g of 1-(4-t-butylbenzyl)-3-(3-fluoro-4-methanesulfonylaminobenzyl)thiourea (Compound 1) was added to 100 ml of 95% ethanol solution containing 0, 1.0, 2.0, 5.0, 10.0 or 20.0 w/v % of 2-hylroxypropyl-β-cyclodextrin, and the mixture was stirred for 72 hours and then filtered through a 0.2 micrometer filter paper. The concentration of Compound 1 in the filtrate was determined by high performance liquid chromatography (HPLC) and the solubility of Compound 1 depending on the concentration of 2-hydroxypropyl-β-cyclodextrin is presented in Table 4.

[4] = Test for pharmacokinetics after oral administration to rats; assay type: in vivo; details: orally administered, 10 mg/kg
From the text: 1-(4-t-Butylbenzyl)-3-(3-fluoro-4-methanesulfonylaminobenzyl)thiourea (Compound 1) and the liquid formulation prepared in Formulation Example 3 were each orally administered to rats, and the changes in the plasma drug concentration were monitored according to a set time schedule. Each experimental animal group consisted of four male rats. After the rats were anesthetized with ether and operated for inserting a PE-50 polyethylene tube into the femoral artery, the suspension of Compound 1 in 0.5% sodium carboxymethylcellulose solution and the liquid formulation of Formulation Example 3 were each orally administered to the rats. At 15, 30, 60, 120, 210, 300 and 480 minutes after the administration, 150 micro liter blood samples were taken from the rats. Each blood sample was centrifuged to separate plasma, which was then subjected to HPLC to determine the concentration of Compound 1 in plasma.

[5] = Comparative dissolution test (Paddle method, Korean pharmacopoeia); assay type: physicochemical; details: water as release solvent, 37° C., 50 rpm, FIG. 1
Experimental: 1-(4-t-butylbenzyl)-3-(3-fluoro-4-methanesulfonylaminobenzyl)thiourea (Compound 1) and the tablet prepared in Formulation Example 2 were subjected to test in accordance with dissolution test method II (Paddle method) described in Korean pharmacopoeia using water as a release solvent.
3 ml samples were taken at a given time interval under the condition of 37° C. and 50 rpm, and filtered through a 0.45 micrometer filter. The concentration of Compound 1 in each sample was determined by HPLC.

Q: Which solubility at 72 h ([1]; aqueous with cosolvent or surfactant or cyclodextrin, 1.5 w/v % 2-hydroxypropyl-β-cyclodextrin) does the source give for CC(C)(C)c1ccc(CNC(=S)NCc2ccc(NS(C)(=O)=O)c(F)c2)cc1 [Compound 1, 1-(4-t-butylbenzyl)-3-(3-fluoro-4-methanesulfonylaminobenzyl)thiourea] here?
A: The solubility at 72 h was 0.4 mg/mL (≈ 0.944 mM).

Q: What about the solubility at 72 h ([1]; aqueous with cosolvent or surfactant or cyclodextrin, 3.5 w/v % 2-hydroxypropyl-β-cyclodextrin) of the same molecule?
A: Its solubility at 72 h is 1.04 mg/mL (≈ 2.46 mM).

Q: And the solubility at 72 h ([1]; aqueous with cosolvent or surfactant or cyclodextrin, 7.0 w/v % 2-hydroxypropyl-β-cyclodextrin)?
A: Its solubility at 72 h is 4.18 mg/mL (≈ 9.87 mM).

Q: What about the solubility at 72 h ([1]; aqueous with cosolvent or surfactant or cyclodextrin, 14.0 w/v % 2-hydroxypropyl-β-cyclodextrin) of the same molecule?
A: The solubility at 72 h was 12.2 mg/mL (≈ 28.9 mM).

Q: What about the solubility at 72 h ([1]; aqueous with cosolvent or surfactant or cyclodextrin, 28.0 w/v % 2-hydroxypropyl-β-cyclodextrin) of the same molecule?
A: The solubility at 72 h was 29 mg/mL (≈ 68.4 mM).

Q: And the solubility at 72 h ([1]; water, 0 w/v % 2-hydroxypropyl-β-cyclodextrin)?
A: Its solubility at 72 h is 0.01 mg/mL (≈ 0.0236 mM).

Q: What about the solubility at 72 h ([2]; pH 10.5, aqueous buffer, 0 w/v % 2-hydroxypropyl-β-cyclodextrin) of the same molecule?
A: Its solubility at 72 h is 0.05 mg/mL (≈ 0.118 mM).

Q: What about the solubility at 72 h ([2]; pH 10.5, aqueous with cosolvent or surfactant or cyclodextrin, 1.5 w/v % 2-hydroxypropyl-β-cyclodextrin) of the same molecule?
A: The solubility at 72 h was 2.7 mg/mL (≈ 6.37 mM).

Q: What about the solubility at 72 h ([2]; pH 10.5, aqueous with cosolvent or surfactant or cyclodextrin, 3.5 w/v % 2-hydroxypropyl-β-cyclodextrin) of the same molecule?
A: Its solubility at 72 h is 4.8 mg/mL (≈ 11.3 mM).

Q: And the solubility at 72 h ([2]; pH 10.5, aqueous with cosolvent or surfactant or cyclodextrin, 7.0 w/v % 2-hydroxypropyl-β-cyclodextrin)?
A: The solubility at 72 h was 9.62 mg/mL (≈ 22.7 mM).

Q: And the solubility at 72 h ([2]; pH 10.5, aqueous with cosolvent or surfactant or cyclodextrin, 14.0 w/v % 2-hydroxypropyl-β-cyclodextrin)?
A: The solubility at 72 h was 18 mg/mL (≈ 42.5 mM).

Q: And the solubility at 72 h ([2]; pH 10.5, aqueous with cosolvent or surfactant or cyclodextrin, 28.0 w/v % 2-hydroxypropyl-β-cyclodextrin)?
A: Its solubility at 72 h is 32.5 mg/mL (≈ 76.7 mM).

Q: What about the solubility at 72 h ([3]; 0 w/v % 2-hydroxypropyl-β-cyclodextrin) of the same molecule?
A: The solubility at 72 h was 19.7 mg/mL (≈ 46.6 mM).

Q: What about the solubility at 72 h ([3]; 1.0 w/v % 2-hydroxypropyl-β-cyclodextrin) of the same molecule?
A: The solubility at 72 h was 21.2 mg/mL (≈ 50.1 mM).

Q: What about the solubility at 72 h ([3]; 2.0 w/v % 2-hydroxypropyl-β-cyclodextrin) of the same molecule?
A: Its solubility at 72 h is 22.7 mg/mL (≈ 53.5 mM).

Q: What about the solubility at 72 h ([3]; 5.0 w/v % 2-hydroxypropyl-β-cyclodextrin) of the same molecule?
A: Its solubility at 72 h is 27.2 mg/mL (≈ 64.3 mM).

Q: And the solubility at 72 h ([3]; 10.0 w/v % 2-hydroxypropyl-β-cyclodextrin)?
A: The solubility at 72 h was 34.1 mg/mL (≈ 80.6 mM).

Q: And the solubility at 72 h ([3]; 20.0 w/v % 2-hydroxypropyl-β-cyclodextrin)?
A: Its solubility at 72 h is 43.5 mg/mL (≈ 103 mM).

Q: What about the bioavailability ([4]; male, rat, plasma, po, read-out: BA: Bioavailability) of the same molecule?
A: Its bioavailability is 16.5%.

Q: What about the Cmax ([4]; male, rat, plasma, po, read-out: Cmax: Maximum plasma concentration) of the same molecule?
A: The Cmax was 670 ng/mL.

Q: What about the Tmax ([4]; male, rat, plasma, po, read-out: Tmax: Time at the maximum plasma concentration) of the same molecule?
A: The Tmax was 30 min.

Q: And the “AUC: Area under the plasma concentration vs. time curve till 24 hours” value [4]?
A: The value was 2.79 microgram · h/ml.

Q: What about the “percent dissolution of drug” value [5] of the same molecule?
A: The value was “insoluble in water”.
